Measured values as given in ChEMBL document CHEMBL1201862, “PubChem BioAssay data set” (2004).
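Each compound was tested at five concentrations against cells in 96-well plates for 48 hours. GI50 is the concentration that inhibits growth by half.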 Calls of active or inactive are those of the source. Cut-off read from the data, not from the text of the source: active = GI50 up to about 1.1 µM and inactive = higher.

How the values were obtained:
Assay in all cases: NCI anticancer screen, dose series, 48 h
MDA-MB-435 = test system: MDA-MB-435
K562 = test system: K562
NCI-H460 = test system: NCI-H460
SK-OV-3 = test system: SK-OV-3
TK-10 = test system: TK-10
CAKI-1 = test system: CAKI-1
SN12C = test system: SN12C
A549 = test system: A549
UO-31 = test system: UO-31
RPMI-8226 = test system: RPMI-8226
MDA-N = test system: MDA-N
SK-MEL-2 = test system: SK-MEL-2
LOX IMVI = test system: LOX IMVI
DU-145 = test system: DU-145
786-0 = test system: 786-0
HT-29 = test system: HT-29
IGROV-1 = test system: IGROV-1
MOLT-4 = test system: MOLT-4
CCRF-CEM = test system: CCRF-CEM
SF-539 = test system: SF-539

Measured: GI50

CC1(C)/C(=N\Nc2ccc([N+](=O)[O-])cc2[N+](=O)[O-])C2CCC1C2 (stereo not drawn)
inactive: MDA-MB-435 > 100 µM | K562 > 100 µM | NCI-H460 > 100 µM | SK-OV-3 27.7 µM | TK-10 > 100 µM | CAKI-1 > 100 µM | SN12C > 100 µM | A549 > 100 µM | UO-31 > 100 µM | RPMI-8226 > 100 µM | MDA-N > 100 µM | SK-MEL-2 > 100 µM | LOX IMVI > 100 µM | DU-145 > 100 µM | 786-0 81.8 µM | HT-29 > 100 µM | IGROV-1 > 100 µM | MOLT-4 > 100 µM | CCRF-CEM > 10 µM

O=C(O)C1CC2(C1)CC(C(=O)O)C2 (stereo not drawn)
inactive: MDA-MB-435 > 100 µM | K562 > 100 µM | NCI-H460 > 100 µM | SK-OV-3 > 100 µM | TK-10 > 100 µM | CAKI-1 > 100 µM | SN12C > 100 µM | A549 > 100 µM | UO-31 > 100 µM | RPMI-8226 > 100 µM | MDA-N > 100 µM | SK-MEL-2 > 100 µM | LOX IMVI > 100 µM | DU-145 > 100 µM | SF-539 > 100 µM | 786-0 > 100 µM | HT-29 > 100 µM | IGROV-1 > 100 µM | MOLT-4 > 100 µM

COc1ccc2c(c1)CCc1c-2n(CCN2CCOCC2)c2ccc(OC)cc12
inactive: MDA-MB-435 > 100 µM | K562 14.8 µM | NCI-H460 40.5 µM | SK-OV-3 > 100 µM | TK-10 > 100 µM | CAKI-1 > 100 µM | SN12C > 100 µM | A549 60.3 µM | UO-31 > 100 µM | RPMI-8226 63.5 µM | MDA-N 94.2 µM | SK-MEL-2 > 100 µM | DU-145 > 100 µM | SF-539 > 100 µM | 786-0 82.8 µM | HT-29 16.1 µM | IGROV-1 80.2 µM | MOLT-4 12.5 µM | CCRF-CEM 16.4 µM

CCc1n[nH]c(=O)n1/N=C/c1ccc(/C=N/n2c(CC)n[nH]c2=O)cc1
inactive: MDA-MB-435 > 100 µM | K562 > 100 µM | NCI-H460 > 100 µM | TK-10 > 100 µM | CAKI-1 > 100 µM | SN12C > 100 µM | A549 > 100 µM | UO-31 > 100 µM | RPMI-8226 > 100 µM | MDA-N > 100 µM | SK-MEL-2 > 100 µM | LOX IMVI > 100 µM | DU-145 > 100 µM | 786-0 > 100 µM | HT-29 > 100 µM | IGROV-1 > 100 µM | MOLT-4 > 100 µM | CCRF-CEM > 100 µM

O=C(Nc1ccccn1)/C(=C\C(=O)c1ccc(Cl)cc1)Nc1ccccc1
inactive: MDA-MB-435 > 10 µM | K562 > 10 µM | SK-OV-3 > 10 µM | TK-10 > 10 µM | CAKI-1 > 10 µM | SN12C > 10 µM | A549 > 10 µM | RPMI-8226 > 10 µM | MDA-N > 10 µM | LOX IMVI > 10 µM | DU-145 > 10 µM | 786-0 7.16 µM | HT-29 > 10 µM | IGROV-1 > 10 µM | MOLT-4 > 10 µM | CCRF-CEM > 10 µM

CCOC(=O)CSc1[nH]c(NC(=S)Nc2ccccc2)c(C(N)=O)c1C(N)=O
inactive: MDA-MB-435 > 10 µM | K562 > 10 µM | SK-OV-3 > 10 µM | TK-10 > 10 µM | CAKI-1 > 10 µM | SN12C > 10 µM | A549 > 10 µM | RPMI-8226 > 10 µM | MDA-N > 10 µM | LOX IMVI > 10 µM | DU-145 > 10 µM | 786-0 > 10 µM | HT-29 > 10 µM | IGROV-1 > 10 µM | MOLT-4 6.21 µM | CCRF-CEM 4.95 µM

CCCCCCCCCCCCCCCCCCNC(=O)C(N)Cc1ccc(OCc2ccccc2)cn1 (stereo not drawn)
inactive: MDA-MB-435 17.3 µM | K562 23.1 µM | NCI-H460 15.4 µM | SK-OV-3 22.7 µM | TK-10 15.4 µM | CAKI-1 17.2 µM | SN12C 27.7 µM | A549 19.5 µM | UO-31 17.3 µM | RPMI-8226 18.5 µM | MDA-N 26.5 µM | SK-MEL-2 17.1 µM | LOX IMVI 17.4 µM | DU-145 21.3 µM | 786-0 24.5 µM | HT-29 16.8 µM | IGROV-1 15.2 µM | MOLT-4 16 µM | CCRF-CEM 13.5 µM

COC(=O)C1(CCC(C)=O)CCCCCC1=O (stereo not drawn)
inactive: MDA-MB-435 > 100 µM | K562 > 100 µM | NCI-H460 > 100 µM | SK-OV-3 > 100 µM | TK-10 > 100 µM | CAKI-1 > 100 µM | SN12C > 100 µM | A549 > 100 µM | UO-31 > 100 µM | RPMI-8226 > 100 µM | MDA-N > 100 µM | SK-MEL-2 > 100 µM | LOX IMVI > 100 µM | DU-145 > 100 µM | SF-539 > 100 µM | 786-0 > 100 µM | HT-29 > 100 µM | IGROV-1 > 100 µM | MOLT-4 > 100 µM

O=[N+]([O-])c1cc(Cl)cnc1Br
inactive: MDA-MB-435 2.23 µM | K562 2.64 µM | NCI-H460 3.95 µM | SK-OV-3 10.3 µM | TK-10 3.22 µM | CAKI-1 1.86 µM | SN12C 2.92 µM | A549 2.67 µM | UO-31 1.76 µM | RPMI-8226 2.84 µM | MDA-N 3.33 µM | LOX IMVI 1.22 µM | DU-145 3.71 µM | SF-539 2.05 µM | 786-0 5.83 µM | HT-29 3.28 µM | IGROV-1 2.22 µM | MOLT-4 1.25 µM | CCRF-CEM 4.32 µM

COc1cc([C@@H]2c3cc4c(cc3[C@H](OC3OC5COC(c6ccco6)OC5C(O)C3O)C3COC(=O)[C@@H]32)OCO4)cc(OC)c1OC (stereo partly drawn)
inactive: MDA-MB-435 3.59 µM | NCI-H460 2.16 µM | SK-OV-3 > 19.9 µM | TK-10 > 100 µM | CAKI-1 5.35 µM | A549 3.79 µM | UO-31 25.9 µM | RPMI-8226 7.01 µM | MDA-N 2.04 µM | SK-MEL-2 9.31 µM | LOX IMVI 4.06 µM | DU-145 3.15 µM | SF-539 2.74 µM | 786-0 3.3 µM | HT-29 2.8 µM | IGROV-1 3.56 µM

Cc1cc(O)c(C=O)c2c1C(=O)Oc1c(CO)c(O)c3c(c1O2)C(O)OC3=O (stereo not drawn) [SLAZINIC ACID]
inactive: MDA-MB-435 39.6 µM | SK-OV-3 64 µM | TK-10 > 100 µM | CAKI-1 61.5 µM | SN12C > 100 µM | A549 > 100 µM | UO-31 34.5 µM | RPMI-8226 17.4 µM | MDA-N 66.2 µM | SK-MEL-2 97.1 µM | LOX IMVI 82.2 µM | DU-145 > 100 µM | SF-539 > 100 µM | 786-0 > 100 µM | HT-29 > 100 µM | IGROV-1 > 100 µM | MOLT-4 22.1 µM | CCRF-CEM 43 µM
